From patent US9693556B2, “Herbicidal pyridazinone derivatives” (SYNGENTA LIMITED, priority 2011, dated 2017)

How the values were obtained:
Format in all cases: in vivo
[1] = tested on: Ipomoea hederacea (IPOHE); test: Post-emergence herbicidal glasshouse test on Ipomoea hederacea; conditions: post-emergence, 1000 g/h, evaluated after 13 days
Procedure, shortened: (§1)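 Scored on a five-point scale (1 = 0-19% to 5 = 80-100% damage) 13 days after treatment. Application rate 1000 g/h in acetone/water (50:50) containing 0.5% Tween 20, sprayed one day post-sowing for pre-emergence or eight days for post-emergence; glasshouse at 24/16° C, 14 h light, 65% humidity.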

[2] = tested on: Amaranthus retoflexus (AMARE); test: Pre-emergence herbicidal glasshouse test on Amaranthus retoflexus; conditions: pre-emergence, 1000 g/h, evaluated after 13 days
Procedure, shortened: as §1

[3] = tested on: Setaria faberi (SETFA); test: Post-emergence herbicidal glasshouse test on Setaria faberi; conditions: post-emergence, 1000 g/h, evaluated after 13 days
Procedure, shortened: as §1

[4] = tested on: Alopecurus myosuroides (ALOMY); test: Post-emergence herbicidal glasshouse test on Alopecurus myosuroides; conditions: post-emergence, 1000 g/h, evaluated after 13 days
Procedure, shortened: as §1

[5] = tested on: Echinochloa crus-galli (ECHCG); test: Post-emergence herbicidal glasshouse test on Echinochloa crus-galli; conditions: post-emergence, 1000 g/h, evaluated after 13 days
Procedure, shortened: as §1

[6] = tested on: Ipomoea hederacea (IPOHE); test: Pre-emergence herbicidal glasshouse test on Ipomoea hederacea; conditions: pre-emergence, 1000 g/h, evaluated after 13 days
Procedure, shortened: as §1

[7] = tested on: Echinochloa crus-galli (ECHCG); test: Pre-emergence herbicidal glasshouse test on Echinochloa crus-galli; conditions: pre-emergence, 1000 g/h, evaluated after 13 days
Procedure, shortened: as §1

[8] = tested on: Solanum nigrum (SOLNI); test: Pre-emergence herbicidal glasshouse test on Solanum nigrum; conditions: pre-emergence, 1000 g/h, evaluated after 13 days
Procedure, shortened: as §1

[9] = tested on: Alopecurus myosuroides (ALOMY); test: Pre-emergence herbicidal glasshouse test on Alopecurus myosuroides; conditions: pre-emergence, 1000 g/h, evaluated after 13 days
Procedure, shortened: as §1

[10] = tested on: Solanum nigrum (SOLNI); test: Post-emergence herbicidal glasshouse test on Solanum nigrum; conditions: post-emergence, 1000 g/h, evaluated after 13 days
Procedure, shortened: as §1

[11] = tested on: Amaranthus retoflexus (AMARE); test: Post-emergence herbicidal glasshouse test on Amaranthus retoflexus; conditions: post-emergence, 1000 g/h, evaluated after 13 days
Procedure, shortened: as §1

[12] = tested on: Setaria faberi (SETFA); test: Pre-emergence herbicidal glasshouse test on Setaria faberi; conditions: pre-emergence, 1000 g/h, evaluated after 13 days
Procedure, shortened: as §1

Cc1ccccc1-c1c(C(F)(F)F)ccn(-c2cnn(C)c(=O)c2O)c1=O [Compound 1.053]
2 (2=20-39% damage): PRE Application IPOHE herbicidal damage (five point scale) [6]
5 (5=80-100% damage): POST Application IPOHE herbicidal damage (five point scale) [1] | PRE Application AMARE herbicidal damage (five point scale) [2] | POST Application ALOMY herbicidal damage (five point scale) [4] | POST Application ECHCG herbicidal damage (five point scale) [5] | PRE Application ECHCG herbicidal damage (five point scale) [7] | PRE Application SOLNI herbicidal damage (five point scale) [8] | PRE Application ALOMY herbicidal damage (five point scale) [9] | POST Application SOLNI herbicidal damage (five point scale) [10] | POST Application AMARE herbicidal damage (five point scale) [11]
4 (4=60-79% damage): POST Application SETFA herbicidal damage (five point scale) [3] | PRE Application SETFA herbicidal damage (five point scale) [12]

COc1nccc(-c2cnn(C)c(=O)c2O)c1Cl [Compound 1.150]
1 (1=0-19% damage): herbicidal damage, POST Application IPOHE ([1]; five point scale) | herbicidal damage, POST Application SETFA ([3]; five point scale) | herbicidal damage, POST Application ALOMY ([4]; five point scale) | herbicidal damage, POST Application ECHCG ([5]; five point scale) | herbicidal damage, PRE Application ECHCG ([7]; five point scale) | herbicidal damage, PRE Application SOLNI ([8]; five point scale) | herbicidal damage, PRE Application ALOMY ([9]; five point scale) | herbicidal damage, POST Application AMARE ([11]; five point scale) | herbicidal damage, PRE Application SETFA ([12]; five point scale)
4 (4=60-79% damage): herbicidal damage, POST Application SOLNI ([10]; five point scale)
2 (2=20-39% damage): herbicidal damage, PRE Application AMARE ([2]; five point scale) | herbicidal damage, PRE Application IPOHE ([6]; five point scale)

CCn1ncc(-c2c(Cl)ccc(Cl)c2Cl)c(O)c1=O [Compound 1.010]
2 (2=20-39% damage): POST Application AMARE herbicidal damage (five point scale) [11]
1 (1=0-19% damage): PRE Application AMARE herbicidal damage (five point scale) [2] | POST Application SETFA herbicidal damage (five point scale) [3] | POST Application ALOMY herbicidal damage (five point scale) [4] | POST Application ECHCG herbicidal damage (five point scale) [5] | PRE Application IPOHE herbicidal damage (five point scale) [6] | PRE Application ECHCG herbicidal damage (five point scale) [7] | PRE Application SOLNI herbicidal damage (five point scale) [8] | PRE Application ALOMY herbicidal damage (five point scale) [9] | PRE Application SETFA herbicidal damage (five point scale) [12]
4 (4=60-79% damage): POST Application IPOHE herbicidal damage (five point scale) [1] | POST Application SOLNI herbicidal damage (five point scale) [10]

Cn1ncc(-c2cc3cccnc3nc2C(F)(F)F)c(O)c1=O [Compound 1.039]
5 (5=80-100% damage): POST Application IPOHE herbicidal damage (five point scale) [1] | PRE Application AMARE herbicidal damage (five point scale) [2] | POST Application SETFA herbicidal damage (five point scale) [3] | POST Application ECHCG herbicidal damage (five point scale) [5] | PRE Application IPOHE herbicidal damage (five point scale) [6] | PRE Application ECHCG herbicidal damage (five point scale) [7] | POST Application SOLNI herbicidal damage (five point scale) [10] | POST Application AMARE herbicidal damage (five point scale) [11]
3 (3=40-59% damage): PRE Application SETFA herbicidal damage (five point scale) [12]
2 (2=20-39% damage): PRE Application ALOMY herbicidal damage (five point scale) [9]
4 (4=60-79% damage): POST Application ALOMY herbicidal damage (five point scale) [4] | PRE Application SOLNI herbicidal damage (five point scale) [8]

Cn1cccc(-c2cnn(C)c(=O)c2O)c1=O [Compound 9.003]
1 (1=0-19% damage): POST Application ALOMY herbicidal damage (five point scale) [4] | POST Application ECHCG herbicidal damage (five point scale) [5] | PRE Application IPOHE herbicidal damage (five point scale) [6] | PRE Application ECHCG herbicidal damage (five point scale) [7] | PRE Application SOLNI herbicidal damage (five point scale) [8] | PRE Application ALOMY herbicidal damage (five point scale) [9] | PRE Application SETFA herbicidal damage (five point scale) [12]
4 (4=60-79% damage): POST Application SOLNI herbicidal damage (five point scale) [10] | POST Application AMARE herbicidal damage (five point scale) [11]
2 (2=20-39% damage): POST Application IPOHE herbicidal damage (five point scale) [1] | PRE Application AMARE herbicidal damage (five point scale) [2] | POST Application SETFA herbicidal damage (five point scale) [3]

Cn1ncc(-c2ccccc2[S+]([O-])C(F)(F)F)c(O)c1=O (stereo not drawn) [Compound 1.055]
5 (5=80-100% damage): PRE Application AMARE herbicidal damage (five point scale) [2] | POST Application SOLNI herbicidal damage (five point scale) [10] | POST Application AMARE herbicidal damage (five point scale) [11]
2 (2=20-39% damage): PRE Application IPOHE herbicidal damage (five point scale) [6] | PRE Application ECHCG herbicidal damage (five point scale) [7]
4 (4=60-79% damage): POST Application IPOHE herbicidal damage (five point scale) [1] | POST Application ECHCG herbicidal damage (five point scale) [5] | PRE Application SOLNI herbicidal damage (five point scale) [8]
1 (1=0-19% damage): POST Application SETFA herbicidal damage (five point scale) [3] | POST Application ALOMY herbicidal damage (five point scale) [4] | PRE Application ALOMY herbicidal damage (five point scale) [9] | PRE Application SETFA herbicidal damage (five point scale) [12]

Cn1ncc(-c2cccn(CC(F)(F)F)c2=O)c(O)c1=O [Compound 9.005]
2 (2=20-39% damage): POST Application IPOHE herbicidal damage (five point scale) [1] | POST Application AMARE herbicidal damage (five point scale) [11]
4 (4=60-79% damage): POST Application SOLNI herbicidal damage (five point scale) [10]
1 (1=0-19% damage): PRE Application AMARE herbicidal damage (five point scale) [2] | POST Application SETFA herbicidal damage (five point scale) [3] | POST Application ALOMY herbicidal damage (five point scale) [4] | POST Application ECHCG herbicidal damage (five point scale) [5] | PRE Application IPOHE herbicidal damage (five point scale) [6] | PRE Application ECHCG herbicidal damage (five point scale) [7] | PRE Application SOLNI herbicidal damage (five point scale) [8] | PRE Application ALOMY herbicidal damage (five point scale) [9] | PRE Application SETFA herbicidal damage (five point scale) [12]

Cn1ncc(-c2ccc(COCC(F)(F)F)cc2S(C)(=O)=O)c(O)c1=O [Compound 2.053]
5 (5=80-100% damage): POST Application IPOHE herbicidal damage (five point scale) [1] | PRE Application AMARE herbicidal damage (five point scale) [2] | PRE Application ECHCG herbicidal damage (five point scale) [7] | PRE Application SOLNI herbicidal damage (five point scale) [8] | POST Application SOLNI herbicidal damage (five point scale) [10] | POST Application AMARE herbicidal damage (five point scale) [11]
2 (2=20-39% damage): POST Application SETFA herbicidal damage (five point scale) [3] | PRE Application SETFA herbicidal damage (five point scale) [12]
3 (3=40-59% damage): POST Application ALOMY herbicidal damage (five point scale) [4] | POST Application ECHCG herbicidal damage (five point scale) [5] | PRE Application ALOMY herbicidal damage (five point scale) [9]
1 (1=0-19% damage): PRE Application IPOHE herbicidal damage (five point scale) [6]

Cn1ncc(-n2ccc(C(F)(F)F)c(-c3ccc([N+](=O)[O-])cc3)c2=O)c(O)c1=O [Compound 7.009]
5 (5=80-100% damage): POST Application IPOHE herbicidal damage (five point scale) [1] | PRE Application AMARE herbicidal damage (five point scale) [2] | POST Application SETFA herbicidal damage (five point scale) [3] | POST Application ALOMY herbicidal damage (five point scale) [4] | POST Application ECHCG herbicidal damage (five point scale) [5] | PRE Application ECHCG herbicidal damage (five point scale) [7] | PRE Application SOLNI herbicidal damage (five point scale) [8] | PRE Application ALOMY herbicidal damage (five point scale) [9] | POST Application SOLNI herbicidal damage (five point scale) [10] | POST Application AMARE herbicidal damage (five point scale) [11] | PRE Application SETFA herbicidal damage (five point scale) [12]
4 (4=60-79% damage): PRE Application IPOHE herbicidal damage (five point scale) [6]

Cn1ncc(-c2ccc(C(F)(F)F)cc2Cl)c(O)c1=O [Compound 1.076]
2 (2=20-39% damage): POST Application ALOMY herbicidal damage (five point scale) [4] | POST Application ECHCG herbicidal damage (five point scale) [5] | PRE Application SOLNI herbicidal damage (five point scale) [8]
5 (5=80-100% damage): PRE Application AMARE herbicidal damage (five point scale) [2] | POST Application AMARE herbicidal damage (five point scale) [11]
1 (1=0-19% damage): POST Application SETFA herbicidal damage (five point scale) [3] | PRE Application IPOHE herbicidal damage (five point scale) [6] | PRE Application ECHCG herbicidal damage (five point scale) [7] | PRE Application ALOMY herbicidal damage (five point scale) [9] | PRE Application SETFA herbicidal damage (five point scale) [12]
4 (4=60-79% damage): POST Application IPOHE herbicidal damage (five point scale) [1] | POST Application SOLNI herbicidal damage (five point scale) [10]

Cn1ncc(-c2ccccc2Cl)c(O)c1=O [Compound 1.114]
1 (1=0-19% damage): POST Application IPOHE herbicidal damage (five point scale) [1] | PRE Application AMARE herbicidal damage (five point scale) [2] | POST Application SETFA herbicidal damage (five point scale) [3] | POST Application ALOMY herbicidal damage (five point scale) [4] | POST Application ECHCG herbicidal damage (five point scale) [5] | PRE Application IPOHE herbicidal damage (five point scale) [6] | PRE Application ECHCG herbicidal damage (five point scale) [7] | PRE Application SOLNI herbicidal damage (five point scale) [8] | PRE Application ALOMY herbicidal damage (five point scale) [9] | POST Application SOLNI herbicidal damage (five point scale) [10] | POST Application AMARE herbicidal damage (five point scale) [11] | PRE Application SETFA herbicidal damage (five point scale) [12]
